The values that follow come from patent US6107310A, “Heteroarylcarboxamide derivatives for treating CNS disorders” (Knoll Aktiengesellschaft, priority 1995, dated 2000).

Structures can show the parent of a compound that is named as a salt.

Common to all, as to design: species or system rat (male Charles River CD)
One assay deals with T1, 5-HT1A receptors (Rattus norvegicus, UniProt P19327).
T1 construct: Hippocampal tissue from the brains of male Charles River CD rats; from tissue; host or cells: rat hippocampus (male Charles River CD rats), membrane preparation
T1 sequence (P19327 1-422): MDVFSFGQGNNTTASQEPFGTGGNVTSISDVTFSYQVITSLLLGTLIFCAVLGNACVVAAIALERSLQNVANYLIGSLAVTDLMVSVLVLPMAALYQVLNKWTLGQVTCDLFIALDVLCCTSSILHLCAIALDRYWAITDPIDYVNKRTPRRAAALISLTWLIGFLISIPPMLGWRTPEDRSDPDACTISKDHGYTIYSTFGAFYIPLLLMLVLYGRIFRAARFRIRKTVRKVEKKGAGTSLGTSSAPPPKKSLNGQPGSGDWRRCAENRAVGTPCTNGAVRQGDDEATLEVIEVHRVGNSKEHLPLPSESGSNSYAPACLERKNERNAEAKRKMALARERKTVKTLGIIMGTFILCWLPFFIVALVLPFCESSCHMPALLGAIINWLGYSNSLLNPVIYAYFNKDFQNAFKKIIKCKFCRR
In words: inhibition of [3H]8-OH-DPAT binding to 5-HT1A receptors in rat hippocampal tissue. The conditions noted are these: rat hippocampus. The method, then: Hippocampal tissue from the brains of male Charles River CD rats weighing between 150-250 g were homogenised in ice-cold 50 mM Tris-HCI buffer (pH 7.7) when measured at 25° C., 1:40 w/v) and centrifuged at 30,000 g at 4° C. for 10 minutes. The pellet was rehomogenised in the same buffer, incubated at 37° C. for 10 minutes and centrifuged at 30,000 g at 4° C. for 10 minutes. The final pellet was resuspended in 50 mM Tris-HCl buffer (pH 7.7) containing 4 mM CaCl2, 0.1% L-ascorbic acid and 10 μM pargyline hydrochloride (equivalent to 6.25 mg wet weight of tissue/ml) and used immediately in the binding assay. […]
(§1) The filters were washed with ice-cold Tris-HCl buffer and dried. The filters were punched out into vials, scintillation fluid added and radioactivity determined by liquid scintillation counting. The percentage displacement of specific binding of the tritiated ligand was calculated for the single concentration (10^-6 M) of test compound. […] The inhibition coefficient Ki was then calculated using the formula [formula] in which [ligand] is the concentration of the tritiated ligand used and KD is the equilibrium dissociation constant for the ligand.

The target in assay [1] is T2, D2-like dopamine receptors (Rattus norvegicus, UniProt P61169).
T2 construct: Striatal tissue from the brains of male Charles River CD rats; from tissue; host or cells: rat striatum (male Charles River CD rats), membrane preparation
T2 sequence (P61169 whole entry): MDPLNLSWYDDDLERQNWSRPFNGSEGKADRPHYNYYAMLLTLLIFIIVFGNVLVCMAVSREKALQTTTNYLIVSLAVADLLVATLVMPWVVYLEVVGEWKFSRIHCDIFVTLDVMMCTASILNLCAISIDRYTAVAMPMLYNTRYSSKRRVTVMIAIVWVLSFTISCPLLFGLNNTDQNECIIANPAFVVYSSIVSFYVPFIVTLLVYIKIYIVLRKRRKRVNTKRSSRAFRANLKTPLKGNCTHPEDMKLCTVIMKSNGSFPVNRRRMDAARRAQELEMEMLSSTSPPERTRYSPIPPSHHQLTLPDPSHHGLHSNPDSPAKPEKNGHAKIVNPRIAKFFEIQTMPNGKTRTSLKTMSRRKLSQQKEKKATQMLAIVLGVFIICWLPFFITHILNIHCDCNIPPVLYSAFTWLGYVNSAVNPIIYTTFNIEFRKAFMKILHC
The assay is described as follows: inhibition of tritiated (S)-sulpiride binding to D2-like dopamine receptors in rat striatal tissue. The conditions noted are these: rat striatum. As to the method:
Striatal tissue from the brains of male Charles River CD rats weighing between 140-250 g were homogenised in ice-cold 50 mM Tris-HCl buffer (pH 7.7 when measured at 25° C.) and centrifuged at 40,000 g for 10 minutes. The pellet was resuspended in Tris salts buffer (50 mM Tris-HCl buffer containing 120 mM NaCl, 5 mM KCl, 2 mM CaCl2 and 1 mM MgCl2 with the addition of 6 mM ascorbic acid; pH 7.7 when measured at 25° C.), and again centrifuged at 40,000 g for 10 minutes. The final pellet was stored at -80° C. Before each test the pellet was resuspended in Tris salts buffer (equivalent to 2 mg wet weight of tissue/ml). […]
The filters were washed with ice-cold Tris-HCl buffer and dried. The filters were punched out in to vials, scintillation fluid added and were left for about 20 hours before being counted by scintillation spectrophotometry. The percentage displacement of specific binding of the tritiated ligand was calculated for the single concentration (10^-6 M) of test compound. […] The inhibition coefficient Ki was then calculated using the formula [formula] in which [ligand] is the concentration of the tritiated ligand used and KD is the equilibrium dissociation constant for the ligand.

The target in a further assay is α1-adrenoceptors. The assay is described as follows: inhibition of [7-methoxy-3H]prazosin binding to α1-adrenoceptors in rat whole cortical tissue. The note with it: rat cortex. The method, then: Whole cortical tissue from the brains of male Charles River CD rats weighing between 150-250 g were homogenised in ice-cold 50 mM Tris-HCl, pH 7.6 (at 25° C.; 1:40 w/v) and centrifuged at 1000 g at 4° C. for 10 minutes. The supernatant was centrifuged at 30,000 g at 4° C. for 10 minutes. The pellet was rehomogenised in 50 mM Tris-HCl, pH 7.6 (1:40 w/v) and centrifuged at 30,000 g at 4° C. for 10 minutes. The final pellet was resuspended in 50 mM Tris-HCl, pH 7.6 (equivalent to 12.5 mg wet weight of tissue/ml) and used immediately in the binding assay. […]
as §1

As usually defined, the Ki is a measure of affinity in units of concentration, obtained from inhibition or displacement.

For the molecule `Nc1ncccc1C(=O)NCC1CCN(C[C@H]2COc3ccc4[nH]ccc4c3O2)CC1` [Example 1, (S)-2-amino-N-{[1-(2,3-dihydro-7H-1,4-dioxino[2,3-e]indol-2-ylmethyl)-4-piperidyl]methyl}pyridine-3-carboxamide], the Ki at 5-HT1A receptors ([3H]8-OH-DPAT 2 nM, 25° C., 30 minutes) came out at 3.1 nM; in assay [1] (tritiated (S)-sulpiride 1 nM, 4° C., 40 minutes), 7.6 nM; on α1-adrenoceptors ([7-methoxy-3H]prazosin 0.1 nM, 30° C., 30 minutes) it was 12.4 nM.
On to `O=C(NCC1CCN(C[C@H]2COc3ccc4[nH]ccc4c3O2)CC1)c1ccccn1` [Example 2, (S)-N-{[1-(2,3-dihydro-7H-1,4-dioxino[2,3-e]indol-2-ylmethyl)-4-piperidyl]methyl}pyridine-2-carboxamide 1.3 fumarate, 0.25 diethyl ether, 1.0 hydrate], for which the inhibition at 1 µM at 5-HT1A receptors (10^-6 M, [3H]8-OH-DPAT, read-out: % displacement at 10^-6 M (5-HT1A)) turned out to be 99%; in assay [1] (10^-6 M, tritiated (S)-sulpiride, read-out: % displacement at 10^-6 M (D2-like)) it was 122%. Further, the “% displacement at 10^-6 M (α1)” value in the assay on α1-adrenoceptors (10^-6 M, [7-methoxy-3H]prazosin, 30 min, 1 µM) was 93%.
